From US5625044A, “Methods for the preparation of pure homologous series of mono to tetra fatty acyl esters of sugars and pharmaceutical formulations useful in the treatment of cancer” (Goudreau Gage Dubec & Martineau, priority 1994, dated 1997)
“Also recorded” adds a separate entry of the source.

Assays:
[1] = Tolerance and immunosuppression of angiostatic steroids
Method: The doses were: 150 mg/kg of body weight/day for the first two days, 125 mg/kg of body weight/day for the next two days, 100 mg/kg of body weight/day for the next two days, and then a maintenance dose of 75 mg/kg of body weight/day was used for the remaining duration of the treatment, for a total of 20-25 days. […] Therefore, the dosage rate of steroids might also be adjusted, according to the patients' response, which is left to the clinician;

[2] = in vivo; cited from earlier work
[3] = system: cultured endothelial cells; assay type: in vitro ADME
Naik As cells = experiment: In vitro growth inhibition of angiosarcoma cell line Naik-AS; assay type: cell-based
Excerpt: The in vitro growth of an angiosarcoma cell line (Naik-AS) developed by us was studied in the presence and absence of maltose tri- and tetrapalmitates.

[4] = Degradation of labelled maltose palmitates in tissues (14C/3H ratio of ethanolic extract); design: species or system mice; settings: mouse, in vivo
Method: The ^3 H-palmitoyl chloride and the ^14 C-maltose (as prepared earlier) were mixed in a total volume of 500 μl of dimethyl formamide (DMF). To the mixture was added 100 μl pyridine and the contents were heated for 14 h at 60° C. in a nitrogen atmosphere. The product was then evaporated under reduced pressure at 60° C. to remove the solvents. It was dissolved in 400 μl of absolute ethanol. Pyridine hydrochloride was removed by adding the dissolved crude reaction product to 1 ml ice cold water in an Eppendorf tube. The resulting suspension was centrifuged at 4° C. for 10 min and the supernatant was discarded. The product was dried for 48 hours in a vacuum desiccator and then was extracted with three 10 μl portions of methanol at room temperature. The methanol extract was subjected to reverse phase HPLC using a methanol eluent and detection at 214 nm at a flow rate of 0.5 ml/min and a 3.9 mn×15 cm Waters Resolve C18 5μ column. Two components eluting at 19.1 and 24.1 min which corresponded to the two isomers of maltose tetrapalmitate were collected. […] The tissue extracts were analyzed for ^3 H and ^14 C for non metabolized MTP and its degradation products by scintillation counting. […]
The ratio of degradation calculated on the basis of slope of ^14 C/^3 H ratio between 24 h and 48 h, in ethanolic extract indicated the following order of degradation, with liver taken as 100: […]

C3HBA = experiment: Antitumor activity of maltose palmitates against C3HBA fragment implanted s.c. in C3H/HeN females; assay type: in vivo, C3H/HeN mice; settings: ip. 3 times weekly, 10 μg (individual palmitates)
Excerpt: The scientific and patent literature on tri-fatty acyl disaccharides is non existent. This compound has not been obtained as a single entity. The compound forms complexes and rarely appeared as a pure band in our investigations. However, when the mixture is subjected to HPLC as described in I, we obtain sufficient quantities of di, tri and tetra palmitates. This allowed us to test each of these components individually and in combinations. Briefly, the following results were obtained using C3HBA fragment implanted s.c. in C3H/HeN females.

tumor cells = experiment: Antitumor activity of individual maltose palmitates (summary statements); assay type: in vivo; settings: comparison of maltose palmitates
[5] = rodents, 150 down to 75 mg/kg of body weight/day, 20-25 days

In the case of C[C@]12CCC(=O)C=C1CC[C@@H]1[C@@H]2CC[C@@]2(C)[C@H]1CC[C@]2(O)C(=O)CO [cortexolone], the “tolerance at high doses” value ([1]; in vivo) is reported as “rodents tolerate them”.
In the case of C[C@]12CCC(=O)C=C1CC[C@@H]1[C@@H]2[C@@H](O)C[C@@]2(C)[C@H]1CC[C@]2(O)C(=O)CO [hydrocortisone], the immunosuppression [2] is given as “at high doses, it is immunosuppressive; also recorded: highly immunosuppressive” and the “tolerance at high doses” value [1, 5] is given as “rodents tolerate them”.
In the case of CC(=O)[C@@]1(O)CC[C@H]2[C@@H]3CCC4=CC(=O)CC[C@]4(C)[C@H]3CC[C@@]21C [17-β-OH progesterone], the “tolerance at high doses” value [1, 5] is reported as “rodents tolerate them”.
With CCCCCCCCCCCCCCCC(=O)OC[C@H]1O[C@H](O[C@H]2[C@H](O)[C@@H](O)C(OC(=O)CCCCCCCCCCCCCCC)O[C@@H]2COC(=O)CCCCCCCCCCCCCCC)[C@H](O)[C@@H](O)[C@@H]1O (stereo partly shown) [maltose tripalmitate, maltose 1, 6, 6' tri palmitate] the “degradation by cultured endothelial cells” value [3] was “Degradation also occurred”, the “% Inhibition of growth of Naik As cells in culture” value (shortened to “% Inhibition”) (Naik As cells; 5 μg/ml, 30 hours) was 30% and the “% Inhibition” value (Naik As cells; 5 μg/ml, 60 hours) was 17%. For the same compound, the “% Inhibition” value (Naik As cells; 5 μg/ml, 105 hours) was 10%, the “% Inhibition” value (Naik As cells; .625 μg/ml, 30 hours) was 25% and the “% Inhibition” value (Naik As cells; .625 μg/ml, 60 hours) was 11%. The “% Inhibition” value (Naik As cells; .625 μg/ml, 105 hours) was 4%, the “in vitro growth of angiosarcoma cell line (Naik-AS), in words” value (Naik As cells; time course in words) was “inhibited growth on the first 30 hours which response declined as it got degraded” and the “retention time in tissues / degradation, in words” value [4] was “followed by maltose tripalmitate”. The “Day of tumor appearance after implantation” value (C3HBA) was 14 to 16 days and the “antitumor activity, in words” value (tumor cells) was “most active component”.
With C[C@]12CC[C@@H](O)C[C@H]1CC[C@@H]1[C@@H]2CC[C@@]2(C)[C@H]1CC[C@]2(O)C(=O)CO [tetra hydro S] the “tolerance at high doses” value [1, 5] was “rodents tolerate them”.
